Measured values reported in patent US12227494B2, “Polymorphisms of HM30181 mesylate” (ATHENEX R&D, LLC, priority 2020, dated 2025).

Assay: Polymorph screening (slurry, liquid vapor diffusion, cooling, evaporation, anti-solvent, large scale) with crystal type by XRPD
Format: physicochemical
Details: for Observations: large scale (200 mg)
Method: Slurry-based generation and/or screening for HM30181 mesylate polymorphs was performed by preparing slurries of starting material HM30181 mesylate Type A in a variety of solvents and under a variety of conditions as described below. The resulting solids were analyzed by XRPD and identified for physical state.
Generation and/or screening of HM30181 mesylate polymorphs was also performed by preparing HM30181 mesylate Type A starting material for liquid and solid vapor diffusion as described below. Resulting solids were analyzed by XRPD and identified for physical state. Liquid vapor diffusion of MTBE into NMP solution yielded HM30181 mesylate Type D (see FIG. 21). Liquid vapor diffusion of MEK into NMP or DMA solution yielded HM30181 mesylate Type D (see FIG. 21). […] Liquid vapor diffusion of 2-MeTHF into DMA or DMF solution yielded HM30181 mesylate Type E (see FIG. 22). Liquid vapor diffusion of MTBE into DMA solution yielded HM30181 mesylate Type E, with a few additional diffraction peaks, which Inventors believe are attributable to HM30181 mesylate Type I (see FIGS. 4 to 8). Liquid vapor diffusion of ACN into DMSO solution yielded HM30181 mesylate Type H (see FIG. 23). Liquid vapor diffusion of Acetone, Ethyl Acetate, or isopropyl acetate into DMA solution yielded HM30181 mesylate Type I (see FIG. 24).
Generation and/or screening of HM30181 mesylate polymorphs by cooling was carried out by treating HM30181 mesylate Type A starting material using gradual or rapid (i.e. crash) cooling as described below. The resulting solids were analyzed by XRPD and identified for physical state.
HM30181 mesylate was also subjected to evaporation methods by treating HM30181 mesylate Type A starting material as described below. The resulting solids were analyzed by XRPD and identified for physical state.
Generation and/or screening of HM30181 mesylate polymorphs by treatment with anti-solvents was performed by treating HM30181 mesylate Type A starting material as described below. The resulting solids were analyzed by XRPD and identified for physical state. Anti-solvent studies in DMSO yielded HM30181 mesylate Type C (see FIG. 26). Anti-solvent studies in N,N-dimethylacetamide with methyl t-butyl ether yielded a HM30181 mesylate Type F polymorphism (see FIG. 27). Anti-solvent addition and reverse anti-solvent addition in DMSO/EtOAc, DMA/MIBK, DMA/toluene and NMP/t-BuOH yielded primarily amorphous content and a polymorphism with some similarity to HM30181 mesylate Type J (see FIG. 28). Other anti-solvent studies in DMSO and DMF yielded a HM30181 mesylate Type K polymorphism (or possibly a mixture of types, see FIG. 29). Anti-solvent experiments in DMF/n-propanol and DMA/isopropanol yielded a HM30181 mesylate Type L polymorphism (see FIG. 30). Anti-solvent addition DMF/Toluene and DMA/t-BuOH were mostly amorphous, but also generated HM30181 mesylate Type M (see FIG. 31).
Large scale studies were performed with HM30181 mesylate Type A starting material on a 200 mg scale as described below. Solids were isolated by vacuum filtration. The wet cakes from filtration from DMA, DMF, and NMP slurries were washed with 1 mL to 2 mL methanol to remove solvents. Solids were then vacuum dried at 80° C. overnight.
Screening of polymorphisms of HM30181 mesylate can include preparation of a slurry. Typically, a slurry was prepared by suspending 5 mg to 20 mg of sample in 0.1 mL to 0.5 mL solvent in a 1.5 mL or 3.0 mL glass vial. The suspension a was stirred at target temperature (e.g. 4° C., ambient temperature, 50° C.) at 200 rpm. Solids for X-ray powder diffraction (XRPD) analysis were separated by centrifuging at 14,000 rpm for 5 minutes at ambient temperature. If no solid or gel is obtained, the slurry can be move to a fume hood for evaporation of the solvent.
In some embodiments anti-solvent addition was used. […]

Structure (SMILES): COc1cc2c(cc1OC)CN(CCc1ccc(-n3nnc(-c4cc(OC)c(OC)cc4NC(=O)c4cc(=O)c5ccccc5o4)n3)cc1)CC2.CS(=O)(=O)O [HM30181 mesylate Type A, HM30181 mesylate]
- XRPD (wet cake) (Crash Cooling 50° C.-->−20° C., CHCl3 4 mL, API 25.4 mg, Exp. 6007235-17-C10): No solids
- XRPD (wet cake) (Crash Cooling 50° C.-->−20° C., DCM 10 mL, API 22.1 mg, Exp. 6007235-17-C13): No solids
- XRPD (wet cake) (Crash Cooling 50° C.-->−20° C., DMA 4 mL, API 26.9 mg, Exp. 6007235-17-C15): Amorphous
- XRPD (wet cake) (Crash Cooling 50° C.-->−20° C., DMF 4 mL, API 25.1 mg, Exp. 6007235-17-C16): Amorphous
- XRPD (wet cake) (Crash Cooling 50° C.-->−20° C., EtOH 20 mL, API 5 mg, Exp. 6007235-17-C11): No solids
- XRPD (wet cake) (Crash Cooling 50° C.-->−20° C., MeOH 10 mL, API 22.9 mg, Exp. 6007235-17-C9): No solids
- XRPD (wet cake) (Crash Cooling 50° C.-->−20° C., NMP 4 mL, API 26.2 mg, Exp. 6007235-17-C14): Amorphous
- XRPD (wet cake) (Crash cooling 50° C.-->−20° C., ACN 10 mL, API 12.6 mg, Exp. 6007235-17-C12): Type C
- XRPD (wet cake) (Slow Cooling 50° C.-->4° C., ACN 10 mL, API 12.6 mg, Exp. 6007235-17-C4): Type C
- XRPD (wet cake) (Slow Cooling 50° C.-->4° C., DMF 4 mL, API 25.1 mg, Exp. 6007235-17-C8): No solids
- XRPD (wet cake) (Slow Cooling 50° C.-->4° C., EtOH 20 mL, API 5 mg, Exp. 6007235-17-C3): No solids
- XRPD (wet cake) (Slow Cooling 50° C.-->4° C., MeOH 20 mL, API 24.7 mg, Exp. 6007235-17-C1): No solids
- XRPD (wet cake) (Slow Cooling 50° C.-->4° C., NMP 4 mL, API 20.9 mg, Exp. 6007235-17-C6): No solids
- Identification (anti-solvent (Table 13), solvent CHCl3, anti-solvent EtOH 10 mL, NB 6004273-06-A102): Type A
- Identification (anti-solvent (Table 13), solvent CHCl3, anti-solvent MTBE 10 mL, NB 6004273-06-A103): Type A
- Identification (anti-solvent (Table 13), solvent CHCl3, anti-solvent n-Heptane 10 mL, NB 6004273-06-A104): Type A
- Identification (anti-solvent (Table 13), solvent DMSO, anti-solvent Toluene 10 mL, NB 6004273-06-A106): Amorphous
- Identification (anti-solvent, solvent CHCl3, anti-solvent 2-MeTHF 10 mL, NB 6004273-06-A27): Type A
- Identification (anti-solvent, solvent CHCl3, anti-solvent ACN 10 mL, NB 6004273-06-A30): Type A
- Identification (anti-solvent, solvent CHCl3, anti-solvent Acetone 10 mL, NB 6004273-06-A22): Type A
- Identification (anti-solvent, solvent CHCl3, anti-solvent CPME 10 mL, NB 6004273-06-A42): Type A
- Identification (anti-solvent, solvent CHCl3, anti-solvent Cyclohexane 10 mL, NB 6004273-06-A35): Type A
- Identification (anti-solvent, solvent CHCl3, anti-solvent DCM 10 mL, NB 6004273-06-A31): Type A
- Identification (anti-solvent, solvent CHCl3, anti-solvent EtOAc 10 mL, NB 6004273-06-A24): Type A
- Identification (anti-solvent, solvent CHCl3, anti-solvent Ethanol 10 mL, NB 6004273-06-A20): Type A
- Identification (anti-solvent, solvent CHCl3, anti-solvent Ethyl formate 10 mL, NB 6004273-06-A40): Type A
- Identification (anti-solvent, solvent CHCl3, anti-solvent IPA 10 mL, NB 6004273-06-A21): Type A
- Identification (anti-solvent, solvent CHCl3, anti-solvent MEK 10 mL, NB 6004273-06-A36): Type A
- Identification (anti-solvent, solvent CHCl3, anti-solvent MIBK 10 mL, NB 6004273-06-A23): Type A
- Identification (anti-solvent, solvent CHCl3, anti-solvent MTBE 10 mL, NB 6004273-06-A29): Type A
- Identification (anti-solvent, solvent CHCl3, anti-solvent MeOAc 10 mL, NB 6004273-06-A34): Type A
- Identification (anti-solvent, solvent CHCl3, anti-solvent THF 10 mL, NB 6004273-06-A26): Type A
- Identification (anti-solvent, solvent CHCl3, anti-solvent Toluene 10 mL, NB 6004273-06-A32): Type A
- Identification (anti-solvent, solvent CHCl3, anti-solvent iBuOAc 10 mL, NB 6004273-06-A41): Type A
- Identification (anti-solvent, solvent CHCl3, anti-solvent iPrOAc 10 mL, NB 6004273-06-A25): Type A
- Identification (anti-solvent, solvent CHCl3, anti-solvent n-Heptane 10 mL, NB 6004273-06-A33): Type A
- Identification (anti-solvent, solvent CHCl3, anti-solvent n-Propanol 10 mL, NB 6004273-06-A38): Type A
- Identification (anti-solvent, solvent CHCl3, anti-solvent n-Propyl acetate 10 mL, NB 6004273-06-A39): Type A
- Identification (anti-solvent, solvent CHCl3, anti-solvent t-Butanol 10 mL, NB 6004273-06-A37): Type A
- Identification (anti-solvent, solvent DMA, anti-solvent t-Butanol 20 mL, NB 6004273-06-A97): Type M
- Identification (anti-solvent, solvent DMF, anti-solvent EtOAc 10 mL, NB 6004273-06-A47): Type A
- Identification (anti-solvent, solvent DMF, anti-solvent EtOH 20 mL, NB 6004273-06-A43): Amorphous
- Identification (anti-solvent, solvent DMF, anti-solvent IPA 10 mL, NB 6004273-06-A44): Type K
- Identification (anti-solvent, solvent DMF, anti-solvent MIBK 10 mL, NB 6004273-06-A46): Amorphous
- Identification (anti-solvent, solvent DMF, anti-solvent MTBE 10 mL, NB 6004273-06-A52): Type A
- Identification (anti-solvent, solvent DMF, anti-solvent Toluene 10 mL, NB 6004273-06-A56): Type M
- Identification (anti-solvent, solvent DMF, anti-solvent n-Propyl acetate 10 mL, NB 6004273-06-A61): Type A
- Identification (anti-solvent, solvent DMSO, anti-solvent 2-MeTHF 10 mL, NB 6004273-06-A8): Amorphous
- Identification (anti-solvent, solvent DMSO, anti-solvent ACN 20 mL, NB 6004273-06-A11): Type C
- Identification (anti-solvent, solvent DMSO, anti-solvent Acetone 10 mL, NB 6004273-06-A3): Type K
- Identification (anti-solvent, solvent DMSO, anti-solvent CHCl3 20 mL, NB 6004273-06-A13): Type K
- Identification (anti-solvent, solvent DMSO, anti-solvent EtOH 20 mL, NB 6004273-06-A1): Type K
- Identification (anti-solvent, solvent DMSO, anti-solvent MIBK 10 mL, NB 6004273-06-A4): Type K
- Identification (anti-solvent, solvent DMSO, anti-solvent MTBE 20 mL, NB 6004273-06-A10): Amorphous
- Identification (anti-solvent, solvent DMSO, anti-solvent Toluene 10 mL, NB 6004273-06-A14): Amorphous
- Identification (anti-solvent, solvent DMSO, anti-solvent n-Propanol 10 mL, NB 6004273-06-A18): Type K
- Identification (anti-solvent, solvent DMSO, anti-solvent n-Propyl acetate 10 mL, NB 6004273-06-A19): Type K
- Identification (anti-solvent, solvent DMSO, anti-solvent t-Butanol 10 mL, NB 6004273-06-A17): Type K
- Identification (anti-solvent, solvent NMP, anti-solvent 1,4-Dioxane 20 mL, NB 6004273-06-A70): Type A
- Identification (anti-solvent, solvent NMP, anti-solvent MEK 20 mL, NB 6004273-06-A77): Amorphous
- Observations (Anti-solvent addition, DMA 20 mL, 5 mg/mL, anti-solvent t-BuOH 200 mL, Desired Type M, NB 6004273-10-M): Amorphous
- Observations (Anti-solvent addition, DMF 20 mL, 5 mg/mL, anti-solvent Toluene 300 mL, Desired Type M, NB 6004273-10-M1): Amorphous
- Observations (Anti-solvent addition, DMF 20 mL, 5 mg/mL, anti-solvent n-propanol 200 mL, Desired Type L, NB 6004273-10-L): Amorphous
- Observations (Anti-solvent addition, DMSO 10 mL, 60 mg/mL, anti-solvent MIBK 200 mL, Desired Type K, NB 6004273-10-K): Amorphous
- Observations (Slurry at 50° C., DMF 0.2 mL, 576 mg/mL, Desired Type G, NB 6004273-10-G): Type F
- Observations (Slurry at 100° C. (for 2 days), DMF 0.2 mL, 595 mg/mL, Desired Type G, NB 6004273-10-F-100C): Type F
- Observations (Slurry at 150° C. (for 5 d), DMF 0.2 mL, 595 mg/mL, Desired Type G, NB 6004273-10-F-150C): Decomposition
- Observations (Slurry at ambient temperature, DMA 0.2 mL, 576 mg/mL, Desired Type E, NB 6004273-10-E): Type E
- Observations (Slurry at ambient temperature, DMF 0.2 mL, 595 mg/mL, Desired Type F, NB 6004273-10-F): Type A
- Observations (Slurry at ambient temperature, MeCN 0.2 mL, 545 mg/mL, Desired Type C, NB 6004273-10-C): Type C
- Observations (Slurry at ambient temperature, MeOH 0.2 mL, 480 mg/mL, Desired Type B, NB 6004273-10-B): Type N
- Observations (Slurry at ambient temperature, NMP 0.2 mL, 550 mg/mL, Desired Type D, NB 6004273-10-D): Amorphous
